# Assay results from patent US6737383B1, “Herbicidal oxadiazolidines” (priority 1999, dated 2004).
# Legend:
# soybean = assay: Test B pre/postemergence soybean; format: in vivo, Glycine max; details: for Plant response rating, Soybean: Postemergence
# Outline: (§1)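 Test chemicals in a non-phytotoxic solvent mixture with surfactant were sprayed preemergence onto planted seeds and postemergence onto plants 2 to 18 cm tall (1- to 4-leaf stage). After twelve to sixteen days in a greenhouse, injury was visually rated against untreated controls from 0 (no effect) to 10 (complete control).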
# sugar beet = assay: Test B pre/postemergence sugar beet; format: in vivo, Beta vulgaris; details: for Plant response rating, Sugarbeets: Postemergence
# Outline: as §1
# wild oat = assay: Test B pre/postemergence wild oat; format: in vivo, Avena fatua; details: for Plant response rating, Wild oats: Postemergence
# Outline: as §1
# purple nutsedge = assay: Test B pre/postemergence purple nutsedge; format: in vivo, Cyperus rotundus
# Outline: as §1
# cocklebur = assay: Test B pre/postemergence cocklebur; format: in vivo, Xanthium strumarium
# Outline: as §1
# bedstraw = assay: Test B pre/postemergence bedstraw; format: in vivo, Galium aparine
# Outline: as §1
# blackgrass = assay: Test B pre/postemergence blackgrass; format: in vivo, Alopecurus myosuroides
# Outline: as §1
# morningglory = assay: Test B pre/postemergence morningglory; format: in vivo, Ipomoea hederacea
# Outline: as §1
# pigweed = assay: Test B pre/postemergence pigweed; format: in vivo, Amaranthus retroflexus; details: for Plant response rating, Redroot pigweed: Postemergence
# Outline: as §1
# corn = assay: Test B pre/postemergence corn; format: in vivo, Zea mays
# Outline: as §1
# smallflower flatsedge = assay: Test B flood test smallflower flatsedge; format: in vivo, Cyperus difformis; details: Rate 250 g/ha; Pre-emergence (flood test species); scale 0 to 10, 0 is no effect, 10 is complete control
# Outline: (§2)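 Flood test on plants grown to the 2-leaf stage; treated plants kept in greenhouse twelve to sixteen days, then visually rated against controls on a 0 (no effect) to 10 (complete control) scale.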
# crabgrass = assay: Test B pre/postemergence crabgrass; format: in vivo, Digitaria sanguinalis
# Outline: as §1
# wheat = assay: Test B pre/postemergence wheat; format: in vivo, Triticum aestivum; details: for Plant response rating, Wheat: Postemergence
# Outline: as §1
# surinam grass = assay: Test B pre/postemergence surinam grass; format: in vivo, Brachiaria decumbens
# Outline: as §1
# giant foxtail = assay: Test B pre/postemergence giant foxtail; format: in vivo, Setaria faberii
# Outline: as §1
# velvetleaf = assay: Test B pre/postemergence velvetleaf; format: in vivo, Abutilon theophrasti; details: for Plant response rating, Velvetleaf: Postemergence
# Outline: as §1
# rice = assay: Test B flood test rice; format: in vivo, Oryza sativa; details: Rate 250 g/ha; Pre-emergence (flood test species); scale 0 to 10, 0 is no effect, 10 is complete control
# Outline: as §2
# bamyardgrass = assay: Test B flood test barnyardgrass; format: in vivo, Echinochloa crus-galli; details: Rate 250 g/ha; Pre-emergence (flood test species); scale 0 to 10, 0 is no effect, 10 is complete control
# Outline: as §2
# duck salad = assay: Test B flood test duck salad; format: in vivo, Heteranthera limosa; details: Rate 250 g/ha; Pre-emergence (flood test species); scale 0 to 10, 0 is no effect, 10 is complete control
# Outline: as §2
# rape = assay: Test B pre/postemergence rape; format: in vivo, Brassica napus
# Outline: as §1
# [1] = Rate 500 g/ha, scale of 0 to 10 where 0 is no effect and 10 is complete control
# [2] = Preemergence, Rate 62 g/ha, scale 0 to 10 (0 no effect, 10 complete control)
# [3] = Preemergence, Rate 125 g/ha, scale 0 to 10, 0 is no effect, 10 is complete control
# [4] = Preemergence, Rate 500 g/ha, scale of 0 to 10 where 0 is no effect and 10 is complete control
# [5] = Rate 250 g/ha, scale of 0 to 10 where 0 is no effect and 10 is complete control
# [6] = Postemergence, Rate 62 g/ha, scale of 0 to 10, 0 is no effect, 10 is complete control
# [7] = Postemergence, Rate 125 g/ha, scale 0 to 10, 0 is no effect, 10 is complete control
# [8] = Postemergence, Rate 500 g/ha, scale of 0 to 10 where 0 is no effect and 10 is complete control
# [9] = Rate 250 g/ha, Postemergence, scale of 0 to 10 where 0 is no effect and 10 is complete control
smiles,measurement,setting,value
Cc1noc(C)c1Cn1c(=O)on(C(=O)N(c2ccccc2)C(C)C)c1=O [Compound 569],"Plant response rating, Soybean",soybean; [1],4
same,Soybean plant response rating,soybean; [2],0
same,Soybean plant response rating,soybean; [3],0
same,Soybean plant response rating (0 to 10 scale),"soybean; Preemergence, Rate 250 g/ha",0
same,Soybean plant response rating,soybean; [4],0
same,"Plant response rating, Soybean",soybean; [5],4
same,"Plant response rating, Sugarbeets",sugar beet; [1],0
same,Sugarbeets plant response rating,sugar beet; [2],0
same,Sugarbeets plant response rating,sugar beet; [3],0
same,Sugarbeets plant response rating (0 to 10 scale),"sugar beet; Preemergence, Rate 250 g/ha",0
same,Sugarbeets plant response rating,sugar beet; [4],3
same,"Plant response rating, Sugarbeets",sugar beet; [5],0
same,"Plant response rating, Wild oats",wild oat; [1],0
same,Wild oats plant response rating,wild oat; [2],0
same,Wild oats plant response rating,wild oat; [3],0
same,Wild oats plant response rating (0 to 10 scale),"wild oat; Preemergence, Rate 250 g/ha",6
same,Wild oats plant response rating,wild oat; [4],9
same,"Plant response rating, Wild oats",wild oat; [5],0
same,Nutsedge plant response rating,purple nutsedge; [6],0
same,Nutsedge plant response rating,purple nutsedge; [7],0
same,"Plant response rating, Nutsedge",purple nutsedge; [8],0
same,Nutsedge plant response rating,purple nutsedge; [2],0
same,Nutsedge plant response rating,purple nutsedge; [3],0
same,Nutsedge plant response rating (0 to 10 scale),"purple nutsedge; Preemergence, Rate 250 g/ha",0
same,Nutsedge plant response rating,purple nutsedge; [4],0
same,"Plant response rating, Nutsedge",purple nutsedge; [9],0
same,Cocklebur plant response rating,cocklebur; [6],0
same,Cocklebur plant response rating,cocklebur; [7],2
same,"Plant response rating, Cocklebur",cocklebur; [8],2
same,Cocklebur plant response rating,cocklebur; [2],0
same,Cocklebur plant response rating,cocklebur; [3],0
same,Cocklebur plant response rating (0 to 10 scale),"cocklebur; Preemergence, Rate 250 g/ha",0
same,Cocklebur plant response rating,cocklebur; [4],0
same,"Plant response rating, Cocklebur",cocklebur; [9],2
same,Bedstraw plant response rating,bedstraw; [6],0
same,Bedstraw plant response rating,bedstraw; [2],0
same,Bedstraw plant response rating,bedstraw; [3],3
same,Bedstraw plant response rating (0 to 10 scale),"bedstraw; Preemergence, Rate 250 g/ha",0
same,Bedstraw plant response rating,bedstraw; [4],0
same,Blackgrass plant response rating,blackgrass; [6],0
same,Blackgrass plant response rating,blackgrass; [7],0
same,"Plant response rating, Blackgrass",blackgrass; [8],3
same,Blackgrass plant response rating,blackgrass; [2],0
same,Blackgrass plant response rating,blackgrass; [3],0
same,Blackgrass plant response rating (0 to 10 scale),"blackgrass; Preemergence, Rate 250 g/ha",9
same,Blackgrass plant response rating,blackgrass; [4],9
same,"Plant response rating, Blackgrass",blackgrass; [9],2
same,Morningglory plant response rating,morningglory; [6],3
same,Morningglory plant response rating,morningglory; [7],10
same,"Plant response rating, Morningglory",morningglory; [8],10
same,Morningglory plant response rating,morningglory; [2],0
same,Morningglory plant response rating,morningglory; [3],0
same,Morningglory plant response rating (0 to 10 scale),"morningglory; Preemergence, Rate 250 g/ha",0
same,Morningglory plant response rating,morningglory; [4],0
same,"Plant response rating, Morningglory",morningglory; [9],10
same,"Plant response rating, Redroot pigweed",pigweed; [1],4
same,Redroot pigweed plant response rating,pigweed; [2],7
same,Redroot pigweed plant response rating,pigweed; [3],9
same,Redroot pigweed plant response rating (0 to 10 scale),"pigweed; Preemergence, Rate 250 g/ha",9
same,Redroot pigweed plant response rating,pigweed; [4],10
same,"Plant response rating, Redroot pigweed",pigweed; [5],4
same,Corn plant response rating,corn; [6],0
same,Corn plant response rating,corn; [7],0
same,"Plant response rating, Corn",corn; [8],2
same,Corn plant response rating,corn; [2],0
same,Corn plant response rating,corn; [3],0
same,Corn plant response rating (0 to 10 scale),"corn; Preemergence, Rate 250 g/ha",0
same,Corn plant response rating,corn; [4],9
same,"Plant response rating, Corn",corn; [9],0
same,S. Flatsedge plant response rating,smallflower flatsedge,0
same,Crabgrass plant response rating,crabgrass; [6],0
same,Crabgrass plant response rating,crabgrass; [7],0
same,"Plant response rating, Crabgrass",crabgrass; [8],6
same,Crabgrass plant response rating,crabgrass; [2],7
same,Crabgrass plant response rating,crabgrass; [3],9
same,Crabgrass plant response rating (0 to 10 scale),"crabgrass; Preemergence, Rate 250 g/ha",9
same,Crabgrass plant response rating,crabgrass; [4],9
same,"Plant response rating, Crabgrass",crabgrass; [9],6
same,"Plant response rating, Wheat",wheat; [1],0
same,Wheat plant response rating,wheat; [2],0
same,Wheat plant response rating,wheat; [3],0
same,Wheat plant response rating (0 to 10 scale),"wheat; Preemergence, Rate 250 g/ha",0
same,Wheat plant response rating,wheat; [4],4
same,"Plant response rating, Wheat",wheat; [5],0
same,B. signalgrass plant response rating,surinam grass; [6],0
same,B. signalgrass plant response rating,surinam grass; [7],0
same,"Plant response rating, B. signalgrass",surinam grass; [8],4
same,B. signalgrass plant response rating,surinam grass; [2],0
same,B. signalgrass plant response rating,surinam grass; [3],9
same,"B. signalgrass plant response rating (0 to 10 scale, 0 is no effect, 10 is complete control)","surinam grass; Preemergence, Rate 250 g/ha",9
same,B. signalgrass plant response rating,surinam grass; [4],9
same,"Plant response rating, B. signalgrass",surinam grass; [9],0
same,Giant foxtail plant response rating,giant foxtail; [6],0
same,Giant foxtail plant response rating,giant foxtail; [7],3
same,"Plant response rating, Giant foxtail",giant foxtail; [8],4
same,Giant foxtail plant response rating,giant foxtail; [2],9
same,Giant foxtail plant response rating,giant foxtail; [3],9
same,Giant foxtail plant response rating (0 to 10 scale),"giant foxtail; Preemergence, Rate 250 g/ha",9
same,Giant foxtail plant response rating,giant foxtail; [4],10
same,"Plant response rating, Giant foxtail",giant foxtail; [9],4
same,"Plant response rating, Velvetleaf",velvetleaf; [1],3
same,Velvetleaf plant response rating,velvetleaf; [2],0
same,Velvetleaf plant response rating,velvetleaf; [3],0
same,Velvetleaf plant response rating (0 to 10 scale),"velvetleaf; Preemergence, Rate 250 g/ha",0
same,Velvetleaf plant response rating,velvetleaf; [4],7
same,"Plant response rating, Velvetleaf",velvetleaf; [5],2
same,Rice plant response rating,rice,0
same,Barnyardgrass plant response rating,bamyardgrass,0
same,Ducksalad plant response rating,duck salad,0
same,Rape plant response rating,rape; [6],0
same,Rape plant response rating,rape; [7],0
same,"Plant response rating, Rape",rape; [8],0
same,Rape plant response rating,rape; [2],0
same,Rape plant response rating,rape; [3],0
same,Rape plant response rating (0 to 10 scale),"rape; Preemergence, Rate 250 g/ha",4
same,Rape plant response rating,rape; [4],9
same,"Plant response rating, Rape",rape; [9],0
